Test results reported in PMC2362650, “Phase I and pharmacokinetic study of the topoisomerase II catalytic inhibitor fostriecin” (British Journal of Cancer, 1999).

Experiment: Phase I study: toxicity graded with NCI common toxicity criteria in patients
Assay type: in vivo, human
Excerpt: Fostriecin (CI-920) is a topoisomerase (topo) II catalytic activity inhibitor (Boritzki et al, 1988) (Figure 1). This novel class of topo II-targeting drugs is considered of potential value for treatment of patients with tumours resistant to classic topo II poisons, including anthracyclines and podophyllotoxins (Cummings and Smyth, 1993). The nuclear enzyme topo II is essential for the regulation of DNA conformation (reviewed in Osheroff et al, 1991). Central in its action is the formation of a complex with DNA. Stabilization of this complex by topo II poisons induces DNA damage and cell death (Froelich-Ammon and Osheroff, 1995). Decreased complex formation due to decreased topo II levels is considered to be an important mechanism of tumour-resistance to topo II poisons (Beck and Danks, 1991). The topo II catalytic inhibitor fostriecin is expected to have increased activity against tumour cells with low topo II levels and this was confirmed in in vitro studies (De Jong et al, 1991). […] Because of increased toxi- city of fostriecin in dogs compared to mice, a dose below one-third of the one-tenth mouse equivalent LD10, 2 mg m-2 day-1, was chosen as starting dose in humans (Clinical Brochure Fostriecin, 1991). […] We also performed an analysis of the human pharmacokinetics of fostriecin and ex vivo experiments to investigate if the plasma drug concentrations achieved were sufficient to inhibit a tenipo- side-resistant tumour cell line. The maximum tolerated dose (MTD) of fostriecin could not be established because drug supply was stopped prematurely. However, results of this study may provide a basis for continued clinical development of this agent. PATIENTS AND METHODS Patient selection, drug administration and evaluation Patient eligibility criteria were: histologically confirmed diagnosis of a solid tumour, no longer amenable to established forms of treatment; age 18-75 years; Eastern Cooperative Oncology Group (ECOG) performance status 2; life expectancy 12 weeks; no Phase I and pharmacokinetic study of the topoisomerase II catalytic inhibitor fostriecin RS de Jong1, NH Mulder1, DRA Uges2, DTh Sleijfer1, FJP Hoppener4, HJM Groen3, PHB Willemse1, WTA van der Graaf1 and EGE de Vries1 Departments of 1Medical Oncology, 2Pharmacy and Toxicology, and 3Pulmonary Diseases, University Hospital Groningen, The Netherlands; 4EORTC New Drug Development Office, Amsterdam, The Netherlands Summary We conducted a phase I and pharmacokinetic study of the topoisomerase II catalytic inhibitor fostriecin. Fostriecin was administered intravenously over 60 min on days 1-5 at 4-week intervals. Dose was escalated from 2 mg m-2 day-1 to 20 mg m-2 day-1 in 20 patients. Drug pharmacokinetics was analysed with high performance liquid chromatography with UV-detection. Plasma collected during drug administration was tested in vitro for growth inhibition of a teniposide-resistant small-cell lung cancer (SCLC) cell line. The predominant toxicities were elevated liver transaminases (maximum common toxicity criteria (CTC) grade 4) and serum creatinine (maximum CTC grade 2). […] Duration of elevated alanine-amino transferase (ALT) was dose-limiting in one patient at 20 mg m-2. Other frequent toxicities were grade 1-2 nausea/vomiting, fever and mild fatigue. […] A metabolite, most probably dephosphorylated fostriecin, was detected in plasma and urine. […] However, further escalation seems possible and is warranted to achieve potentially effective drug levels. Fostriecin has a short plasma half-life and longer duration of infusion should be considered. […]

[1] = 12.2 mg m-2, 3 patients/8 courses
[2] = 20 mg m-2, 2 patients/4 courses
[3] = one patient at 20 mg m-2 after course 2

Question: Which “CTC-grade 1 ALP: courses causing toxicity, all full-dose courses” value [1] does the source give for `C[C@@](O)(/C=C/[C@H]1CC=CC(=O)O1)[C@@H](C[C@@H](O)\C=C/C=C\C=C\CO)OP(=O)(O)O` [fostriecin] here?
Answer: Its value is 3.

Question: And the “CTC-grade 1 ALP: patients developing toxicity in first course” value [1]?
Answer: The value was 1.

Question: And the “CTC-grade 1 ALT: courses causing toxicity, all full-dose courses” value [1]?
Answer: Its value is 0.

Question: And the “CTC-grade 1 ALT: patients developing toxicity in first course” value [1]?
Answer: Its value is 0.

Question: And the “CTC-grade 1 AST: courses causing toxicity, all full-dose courses” value [1]?
Answer: Its value is 0.

Question: What about the “CTC-grade 1 AST: patients developing toxicity in first course” value [1] of the same molecule?
Answer: Its value is 0.

Question: What about the “CTC-grade 1 GGT: courses causing toxicity, all full-dose courses” value [1] of the same molecule?
Answer: The value was 2.

Question: What about the “CTC-grade 1 GGT: patients developing toxicity in first course” value [1] of the same molecule?
Answer: The value was 1.

Question: And the “CTC-grade 1 creatinine: courses causing toxicity, all full-dose courses” value [1]?
Answer: Its value is 5.

Question: And the “CTC-grade 1 creatinine: patients developing toxicity in first course” value [1]?
Answer: Its value is 1.

Question: What about the “CTC-grade 2 ALP: courses causing toxicity, all full-dose courses” value [1] of the same molecule?
Answer: The value was 1.

Question: What about the “CTC-grade 2 ALP: patients developing toxicity in first course” value [1] of the same molecule?
Answer: Its value is 0.

Question: What about the “CTC-grade 2 ALT: courses causing toxicity, all full-dose courses” value [1] of the same molecule?
Answer: The value was 1.

Question: What about the “CTC-grade 2 ALT: patients developing toxicity in first course” value [1] of the same molecule?
Answer: Its value is 0.

Question: What about the “CTC-grade 2 AST: courses causing toxicity, all full-dose courses” value [1] of the same molecule?
Answer: The value was 3.

Question: And the “CTC-grade 2 AST: patients developing toxicity in first course” value [1]?
Answer: Its value is 0.

Question: And the “CTC-grade 2 GGT: courses causing toxicity, all full-dose courses” value [1]?
Answer: Its value is 2.

Question: What about the “CTC-grade 2 GGT: patients developing toxicity in first course” value [1] of the same molecule?
Answer: The value was 1.

Question: What about the “CTC-grade 2 bilirubin: courses causing toxicity, all full-dose courses” value [1] of the same molecule?
Answer: Its value is 6.

Question: And the “CTC-grade 2 bilirubin: patients developing toxicity in first course” value [1]?
Answer: The value was 2.

Question: And the “CTC-grade 2 creatinine: courses causing toxicity, all full-dose courses” value [1]?
Answer: The value was 3.

Question: And the “CTC-grade 2 creatinine: patients developing toxicity in first course” value [1]?
Answer: The value was 2.

Question: What about the “CTC-grade 3 ALT: courses causing toxicity, all full-dose courses” value [1] of the same molecule?
Answer: Its value is 6.

Question: And the “CTC-grade 3 ALT: patients developing toxicity in first course” value [1]?
Answer: Its value is 2.

Question: And the “CTC-grade 3 AST: courses causing toxicity, all full-dose courses” value [1]?
Answer: Its value is 4.

Question: What about the “CTC-grade 3 AST: patients developing toxicity in first course” value [1] of the same molecule?
Answer: Its value is 3.

Question: What about the “CTC-grade 3 GGT: courses causing toxicity, all full-dose courses” value [1] of the same molecule?
Answer: Its value is 2.

Question: What about the “CTC-grade 3 GGT: patients developing toxicity in first course” value [1] of the same molecule?
Answer: The value was 1.

Question: What about the “CTC-grade 3 bilirubin: courses causing toxicity, all full-dose courses” value [1] of the same molecule?
Answer: Its value is 1.

Question: What about the “CTC-grade 3 bilirubin: patients developing toxicity in first course” value [1] of the same molecule?
Answer: The value was 0.

Question: And the “CTC-grade 4 ALT: courses causing toxicity, all full-dose courses” value [1]?
Answer: Its value is 1.

Question: And the “CTC-grade 4 ALT: patients developing toxicity in first course” value [1]?
Answer: Its value is 1.

Question: And the “number of patients with dose-limiting ALT elevation (grade 3 persisting > 7 days)” value (20 mg m-2)?
Answer: Its value is “one”.

Question: What about the “number of patients with reversible thrombocytopenia (grade 2)” value (20 mg m-2) of the same molecule?
Answer: Its value is “one”.

Question: And the “CTC-grade 1 ALP: courses causing toxicity, all full-dose courses” value [2]?
Answer: Its value is 2.

Question: What about the “CTC-grade 1 ALP: patients developing toxicity in first course” value [2] of the same molecule?
Answer: Its value is 2.

Question: What about the “CTC-grade 1 ALT: courses causing toxicity, all full-dose courses” value [2] of the same molecule?
Answer: The value was 0.

Question: And the “CTC-grade 1 ALT: patients developing toxicity in first course” value [2]?
Answer: The value was 0.

Question: And the “CTC-grade 1 AST: courses causing toxicity, all full-dose courses” value [2]?
Answer: The value was 0.

Question: What about the “CTC-grade 1 AST: patients developing toxicity in first course” value [2] of the same molecule?
Answer: Its value is 0.

Question: And the “CTC-grade 1 GGT: courses causing toxicity, all full-dose courses” value [2]?
Answer: The value was 2.

Question: What about the “CTC-grade 1 GGT: patients developing toxicity in first course” value [2] of the same molecule?
Answer: Its value is 1.

Question: And the “CTC-grade 1 creatinine: courses causing toxicity, all full-dose courses” value [2]?
Answer: The value was 1.

Question: What about the “CTC-grade 1 creatinine: patients developing toxicity in first course” value [2] of the same molecule?
Answer: The value was 1.

Question: And the “CTC-grade 2 ALT: courses causing toxicity, all full-dose courses” value [2]?
Answer: Its value is 2.

Question: And the “CTC-grade 2 ALT: patients developing toxicity in first course” value [2]?
Answer: The value was 1.

Question: And the “CTC-grade 2 AST: courses causing toxicity, all full-dose courses” value [2]?
Answer: The value was 1.

Question: What about the “CTC-grade 2 AST: patients developing toxicity in first course” value [2] of the same molecule?
Answer: Its value is 0.

Question: And the “CTC-grade 2 GGT: courses causing toxicity, all full-dose courses” value [2]?
Answer: The value was 0.

Question: What about the “CTC-grade 2 GGT: patients developing toxicity in first course” value [2] of the same molecule?
Answer: The value was 0.

Question: What about the “CTC-grade 2 creatinine: courses causing toxicity, all full-dose courses” value [2] of the same molecule?
Answer: Its value is 2.

Question: What about the “CTC-grade 2 creatinine: patients developing toxicity in first course” value [2] of the same molecule?
Answer: Its value is 1.

Question: What about the “CTC-grade 3 ALT: courses causing toxicity, all full-dose courses” value [2] of the same molecule?
Answer: The value was 2.

Question: And the “CTC-grade 3 ALT: patients developing toxicity in first course” value [2]?
Answer: Its value is 1.

Question: What about the “CTC-grade 3 AST: courses causing toxicity, all full-dose courses” value [2] of the same molecule?
Answer: Its value is 2.

Question: What about the “CTC-grade 3 AST: patients developing toxicity in first course” value [2] of the same molecule?
Answer: The value was 1.

Question: And the “CTC-grade 3 GGT: courses causing toxicity, all full-dose courses” value [2]?
Answer: The value was 2.

Question: What about the “CTC-grade 3 GGT: patients developing toxicity in first course” value [2] of the same molecule?
Answer: Its value is 1.

Question: And the “number of patients with nausea/vomiting (grade 1-2) during course 1” value (20 patients)?
Answer: Its value is 11.

Question: What about the “time to resolution of ALT and AST elevations after drug administration” value (all patients) of the same molecule?
Answer: The value was ≤ 3 weeks.

Question: And the “number of patients with microscopic haematuria (grade 1)” value (doses 6.6 mg m-2 (and above))?
Answer: The value was “seven”.

Question: What about the “number of patients with transient proteinuria grade 1” value (doses 10 mg m-2 (and above)) of the same molecule?
Answer: Its value is “seven”.

Question: What about the “number of patients with transient proteinuria grade 2” value (doses 10 mg m-2 (and above)) of the same molecule?
Answer: The value was “one”.

Question: What about the “number of patients with mild fatigue (grade 1-2)” value (during drug administration and the week thereafter) of the same molecule?
Answer: Its value is “Eight”.

Question: What about the “maximum tolerated dose (MTD)” value (escalation stopped at 20 mg m-2) of the same molecule?
Answer: Its value is “has not been reached”.

Question: What about the “maximum CTC grade of elevated liver transaminases” value (human, blood, intravenous) of the same molecule?
Answer: The value was 4.

Question: And the leuco- or neutropenia (human, in vivo)?
Answer: The leuco- or neutropenia was “No leuco- or neutropenia”.

Question: What about the “number of patients with fever > 38C (grade 2)” value (human, in vivo) of the same molecule?
Answer: Its value is “six”.

Question: What about the “number of patients with fever > 39C” value (human, in vivo) of the same molecule?
Answer: Its value is “one”.

Question: What about the “number of patients with grade 1-2 anaemia” value (human, in vivo) of the same molecule?
Answer: Its value is “Fourteen”.

Question: What about the “number of patients with grade 2 LDH increases” value (human, in vivo) of the same molecule?
Answer: The value was “three”.

Question: What about the “number of patients with grade 2 hyponatraemia” value (human, in vivo) of the same molecule?
Answer: The value was “one”.

Question: And the “number of patients with grade 2 oedema” value (human, in vivo)?
Answer: Its value is “one”.

Question: And the “number of patients with hyperglycaemia grade 1-2 and/or hypoglycaemia grade 1” value (human, in vivo)?
Answer: Its value is “seven”.

Question: And the “number of patients with reversible increases of bilirubin” value (human, in vivo)?
Answer: The value was “four”.

Question: And the “number of courses with fever > 38C (grade 2)” value (human, in vivo, intravenous)?
Answer: The value was 11.

Question: And the “number of patients with occasional increase of body temperature” value (human, in vivo, intravenous)?
Answer: The value was 17.

Question: And the “time to resolution of renal toxicities after last dose of each course” value (human, in vivo, intravenous)?
Answer: The value was 1-2 weeks.

Question: What about the “number of patients with increase of body temperature during course 1” value (human, in vivo, intravenous, 1 course (days 1-5, 4-week interval)) of the same molecule?
Answer: The value was 14.

Question: And the “maximum CTC grade of elevated serum creatinine” value (human, serum, intravenous)?
Answer: Its value is 2.

Question: What about the “day of ALT peak per course” value (median) of the same molecule?
Answer: Its value is 2.5 days.

Question: What about the “day of serum creatinine peak” value (median) of the same molecule?
Answer: Its value is 3 days.

Question: And the “number of courses with nausea/vomiting (grade 1-2)” value (of the 42 courses at full dose)?
Answer: Its value is 33.

Question: And the maximum transient proteinuria [3]?
Answer: Its maximum transient proteinuria is 3.3 g 24 h-1.

Question: What about the “serum albumin (hypoalbuminaemia)” value [3] of the same molecule?
Answer: Its value is 28 g/L.

Question: And the “median duration of grade 3 ALT” value (range 1-9 days)?
Answer: Its value is 3.5 days.

Question: What about the “PT, fibrinogen, anti-thrombin III and cholinesterase levels” value (six patients (13 courses) at 10-20 mg m-2, days 0 and 5) of the same molecule?
Answer: The value was “not affected”.
